Laboratory results: US12390469B2, “SHP2 inhibitor monotherapy and uses thereof” (HUYABIO International, LLC, priority 2021, dated 2025)
Entries after “also recorded” stand apart in the source; their conditions may differ.

Key:
NCI-H1975 = experiment: Cell viability assay (CellTiter-Glo), NCI-H1975; type: cell-based; settings: Day 5, CellTiter-Glo
Protocol: (§1) Cell lines and maintenance: All cell lines used for in vitro and in vivo studies were supplied as part of Crown Biosciences cell bank except KYSE520, which was provided by HUYABIO. All cell lines were maintained according to source at 37° C. and 5% CO2 unless otherwise noted. Human Lung cancer cell lines NCI-H358, HCC827, Esophageal cancer cell line KYSE520, Stomach cancer cell line NCI-N87 and Mouse Colon cancer cell line MC38 were cultured in RPMI1640+10% FBS. Pancreatic cell line MiaPaca-2 was cultured in MDME+10% FBS+2.5% HS. Pancreatic cancer cell line CAPAN-1 was cultured in IMDM+20% FBS. Brain cancer cell line U87MG was cultured in MEM+0.01 mM NEAA+10% FBS. Lung cancer cell line HCC827-ER1 (Derived from HCC827 at Crown Biosciences) was cultured in RPMI1640+10% FBS+42 μM erlotinib. Lung cancer cell line NCI-H1975 (developed at Synthego Corporation) was cultured in RPMI1640+10% FBS+100 μg/ml Hygromycin (Sun, 2020).
(§2) Cell Viability Assay: For cell cytotoxicity assays, cells were plated in 96-well plates and plating densities were determined on the basis of Crown Biosciences Cell line Database. Cells were plated at 2000 cells/well. Twenty four hours after plating, cells were treated with inhibitors at the indicated compound concentrations. On Day 5, cells were lysed with CellTiter-Glo® Luminescent Cell Viability Assay reagent (Promega) and luminescence was read using the EnVision Multi-plate reader. To calculate IC50 values, a dose-response curve is generated using a nonlinear regression model with a sigmoidal dose response. The formula of surviving rate is shown below. IC50 values were automatically generated by GraphPad Prism 8.0. The results of these assays are depicted in FIG. 1 and Table 1, and further in FIG. 9A (HCC827-ER1) and 9B (NCI-H1975 (L858R/T790M/C797S)).

HCC827 = experiment: Cell viability assay (CellTiter-Glo), HCC827; type: cell-based, human; settings: Day 5, CellTiter-Glo
Protocol: as §1, §2

MIAPaCa-2 = experiment: Cell viability assay (CellTiter-Glo), MIAPaCa-2; type: cell-based; settings: Day 5, CellTiter-Glo
Protocol: as §1
(§3) Cell Viability Assay: For cell cytotoxicity assays, cells were plated in 96-well plates and plating densities were determined on the basis of Crown Biosciences Cell line Database. Cells were plated at 2000 cells/well. […] On Day 5, cells were lysed with CellTiter-Glo® Luminescent Cell Viability Assay reagent (Promega) and luminescence was read using the EnVision Multi-plate reader. […]

Capan-1 = experiment: Cell viability assay (CellTiter-Glo), Capan-1; type: cell-based; settings: Day 5, CellTiter-Glo
Protocol: as §1, §3

NCI-H358 = experiment: Cell viability assay (CellTiter-Glo), NCI-H358; type: cell-based, human; settings: Day 5, CellTiter-Glo
Protocol: as §1, §2

U87MG = experiment: Cell viability assay (CellTiter-Glo), U87MG; type: cell-based; settings: Day 5, CellTiter-Glo
Protocol: as §1, §2

NCI-N87 = experiment: Cell viability assay (CellTiter-Glo), NCI-N87; type: cell-based, human; settings: Day 5, CellTiter-Glo
Protocol: as §1, §2

KYSE 520 = experiment: Cell viability assay (CellTiter-Glo), KYSE 520; type: cell-based, human; settings: Day 5, CellTiter-Glo
Protocol: as §1, §2

cancer cell lines = experiment: Cell proliferation assays, cell line panel (FIG. 1); type: cell-based; settings: compared with GH21001 (TNO-155), RMC-4550, Cisplatin
Protocol: as §1, §3

KC/GRO = experiment: Cytokine detection assay (V-Plex Proinflammatory Panel 1 Mouse Kit) in plasma; type: in vivo; settings: FIG. 11; tumor bearing animals, 2 hours post last dose; versus GH21001 (TNO-155) and RMC-4550; listed as Formula (Ia)
Protocol: Cytokine detection assay: V-Plex Proinflammatory Panel 1 Mouse Kit (Mesoscale Discovery) was used to determine cytokine levels in plasma isolated from tumor bearing animals 2 hours post last dose. Plasma from tumor bearing animals was analyzed as described by the manufacture's guidelines. Briefly, diluted plasma is introduced to the MSD plate pre-coated with capture antibodies to KC/GRO. After incubation, samples are washed and incubated with secondary detection antibody, (MSD SULFO-TAG™). Electrochemiluminescence detection from the assay is analyzed on the Meso Scale Discovery platform and cytokine levels calculated according to manufacturer's control samples.

[1] = test system: NCI-H1975 (L858R/T790M/C797S); experiment: Cell viability assay, Osimertinib resistant NCI-H1975 (FIG. 9B); type: cell-based
Protocol: as §1, §3

[2] = test system: lung cancer cell line HCC827-ER1; experiment: Cell viability assay, HCC827-ER1 (FIG. 9A); type: cell-based, human
Protocol: as §1, §3

MC38 tumors = experiment: Tumor and blood immunotyping (FACS) in MC38 model; type: in vivo, mouse
Protocol: All cell lines were maintained in culture and cells in exponential growth phase were harvested and quantitated by cell counter before tumor inoculation. MC38 tumor cells (1×10^6) in 0.1 ml of PBS were inoculated into the right front flank of female C57/Bl animals, mean tumor size approximately 112 mm^3 at the start of treatment. NCI-H1975 (EGFR L858R/[…]/C797S) tumor cells (1×10^7) in 0.1 ml of PBS mixed with Matrigel (1:1) inoculated into female NOD/SCID animals, mean tumor approximately 200 mm^3 at the start of treatment. HCC827-ER1 tumor cells (5×10^7) in 0.1 ml of PBS mixed with Matrigel (1:1) inoculated into female Balb/C Nude animals, mean tumor approximately 325 mm^3 at the start of treatment.
The date of randomization and treatment initiation was denoted as day 0. Tumor volumes were measured twice per week in two dimensions using a caliper, and the volume will be expressed in mm^3 using the formula: V=(L×W×W)/2, where V is tumor volume, L is tumor length (the longest tumor dimension) and W is tumor width (the longest tumor dimension perpendicular to L). Dosing volume was 10 mL/kg/day. GH21001 and GH21005 were dissolved in HP-β-CD with 200 ml of 50 mM sodium citrate (pH=4.2). Anti-PD-1 and Rat IgG2a were diluted in PBS. RMC-4550 was diluted in 1% Capitsol in 50 mM sodium citrate (pH=5.0) 0.5% dosing solution of osimertinib was diluted in 2% DMSO/30% PEG300. The results of these experiments are depicted in FIG. 2A-B (MC38 tumors) and FIG. 10A-10B (NCI-H1975 (L858R/T790M/C797S) tumors). The results for HCC827 CDX model are depicted in FIG. 12A-B. Upon termination, tumors were collected. A portion of the tumor was minced and snap frozen immediately for protein isolation or tumor tissue was dissociated for FACs analysis. Another portion of the tumor was fixed in 10% neutral buffered formalin prior to processing into paraffin blocks.
Tumor dissociation: Upon termination animals bearing MC38 tumors, tumors and blood was harvested 12 hours post last dose. Tumors were enzymatically and mechanically dissociated using The Tumor Dissociation Kit (130-096-730) Miltenyi Biotec MACS Technology. Mononuclear blood cells (PBMCs) were isolated from whole blood using Histopaque-1077 (Sigma).
Tumor cell suspension, whole lysed blood or isolated PBMCs were resuspended and blocked in staining buffer with 1 μg/ml Fc-Block (Mouse BD Fc Block™ CAT #553141). All antibodies were diluted in Fc Blocking buffer except FoxP3 which was diluted in Permeabilization Buffer. Antibodies were diluted according to Crown Biosciences optimization. Cell surface markers CD45, CD4, CD335, CD11b, Gr-1 were purchased from Biolegend. CD3 was purchased from BD Biosciences. CD8, FoxP3 and LD BD were purchased from eBiosciences. Data was collected on a cytometer and data was analyzed using Kaluza Analysis Software. The results of these experiments are depicted in FIG. 3 (macrophages), FIG. 4 (monocytes), FIG. 5 (granulocytes), FIG. 6 (CD3+ cells), FIG. 7 (CD4+ cells), and FIG. 8 (CD8+ cells).

IC50 (HCC827; Homo sapiens, 120 h) | IC50 (NCI-H358; Homo sapiens, 120 h) | IC50 (U87MG; Homo sapiens, U-87 MG, 120 h) | Compound | IC50 (NCI-H1975) | IC50 (HCC827) | IC50 (NCI-H358) | IC50 (U87MG) | IC50 (NCI-N87) | IC50 (KYSE 520) | IC50 (NCI-N87; Homo sapiens, 120 h) | IC50 (KYSE 520; Homo sapiens, 120 h) | also measured
 |  |  | N.N.[Cl][Pt][Cl] [Cisplatin] | 3990 nM | 4790 nM | 4850 nM | 1580 nM | 2350 nM | 6800 nM |  |  | IC50 (MIAPaCa-2): 7150 nM; IC50 (Capan-1): 270 nM
410 nM | 460 nM | 1530 nM | C[C@@H]1OCC2(CCN(c3cnc(Sc4ccnc(N)c4Cl)c(N)n3)CC2)[C@@H]1N [GH21001] |  |  |  |  |  |  | 230 nM | 450 nM | IC50 (Capan-1; Homo sapiens, 120 h): 6060 nM
20 nM | 30 nM | 230 nM | C[C@@H]1OCC2(CCN(c3cnc(Sc4cccc(NC(=O)c5c(O)nc6n(c5=O)CCCC6)c4Cl)cn3)CC2)[C@@H]1N [GH21005, N-(3-((5-((3S,4S)-4-amino-3-methyl-2-oxa-8-azaspiro[4.5]decan-8-yl)pyrazin-2-yl)thio)-2-chlorophenyl)-2-hydroxy-4-oxo-6,7,8,9-tetrahydro-4H-pyrido[1,2-a]pyrimidine-3-carboxamide] |  |  |  |  |  |  | 10 nM | 60 nM | potency in cell proliferation assays versus other agents (cancer cell lines): greater potency in cell proliferation assays than other agents; IC50 (NCI-H1975; Homo sapiens, 120 h): 210 nM; KC/GRO level in plasma (KC/GRO): significantly reduced KC/GRO as compared to GH21001 (TNO-155) and RMC-4550; also recorded: reduces KC/GRO significantly more than GH21001 (TNO-155) and RMC-4550; viability of Osimertinib resistant cancer cell line NCI-H1975 (L858R/T790M/C797S) [1]: reduces viability; viability of lung cancer cell line HCC827-ER1 [2]: reduces viability; macrophage populations in MC38 tumors (MC38 tumors; FIG. 3, harvested 12 hours post last dose): reduces macrophage populations; monocyte populations in MC38 tumors (MC38 tumors; FIG. 4, harvested 12 hours post last dose): increases monocyte populations; granulocyte populations in MC38 tumors (MC38 tumors; FIG. 5, harvested 12 hours post last dose): increases granulocyte populations; circulating CD3+ cell populations (MC38 tumors; FIG. 6, MC38 model, blood 12 hours post last dose): increases circulating CD3+ cell populations; circulating CD4+ cell populations (MC38 tumors; FIG. 7, MC38 model, blood 12 hours post last dose): increases circulating CD4+ cell populations; circulating CD8+ cell populations (MC38 tumors; FIG. 8, MC38 model, blood 12 hours post last dose): increases circulating CD8+ cell populations
 |  |  | Cc1nc(N2CCC3(CC2)CO[C@@H](C)[C@H]3N)c(CO)nc1-c1cccc(Cl)c1Cl [RMC-4550] | 1440 nM | 690 nM | 440 nM | 3900 nM | 260 nM | 490 nM |  |  | 
